Test results from ChEMBL document CHEMBL4673405, “Novel Linker Variants of Antileishmanial/Antitubercular 7-Substituted 2-Nitroimidazooxazines Offer Enhanced Solubility” (ACS Med Chem Lett, 2021).
In brackets after ≈: the same amount, converted by molar mass.

system: Leishmania donovani; experiment: Antileishmanial activity against Leishmania donovani MHOM/ET/67/HU3 amastigotes infected in po dosed BALB/c mouse model of visceral leishmaniasis assessed as reduction in parasite burden in liver at administered once daily for 5 consecutive days starting after 7 days post-infection by microscopic analysis; format: functional; conditions: MHOM/ET/67/HU3, po, 120 h, time 5 day

Row | Compound | ED50
1 | CC1(COC(=O)Nc2ccc(OC(F)(F)F)cc2)CCn2cc([N+](=O)[O-])nc2O1 (stereo unspecified) | 16 mg/kg

system: Leishmania donovani; experiment: Antileishmanial activity against Leishmania donovani MHOM/ET/67/HU3 amastigotes infected in BALB/c mouse model of visceral leishmaniasis assessed as reduction in parasite burden in spleen at 25 mg/kg, po administered once daily for 5 consecutive days starting after 7 days post-infection by microscopic analysis relative to control; format: functional; parameters: scale not given: the % may be the effect or the level left; conditions: time 5 day

Row | Compound | Activity
2 | CC1(COC(=O)Nc2ccc(OC(F)(F)F)cc2)CCn2cc([N+](=O)[O-])nc2O1 (stereo unspecified) | 96%

system: Leishmania donovani; experiment: Antileishmanial activity against Leishmania donovani MHOM/ET/67/HU3 amastigotes infected in BALB/c mouse model of visceral leishmaniasis assessed as reduction in parasite burden in spleen at 50 mg/kg, po administered once daily for 5 consecutive days starting after 7 days post-infection by microscopic analysis relative to control; format: functional; parameters: scale not given: the % may be the effect or the level left; conditions: time 5 day

Row | Compound | Activity
3 | CC1(COC(=O)Nc2ccc(OC(F)(F)F)cc2)CCn2cc([N+](=O)[O-])nc2O1 (stereo unspecified) | 100%

system: not listed separately; experiment: Half life in BALB/c mouse at 25 mg/kg, po measured up to 24 hrs by LC-MS/MS analysis; format: ADME, organism-based; conditions: in vivo

Row | Compound | half-life
4 | CC1(COC(=O)Nc2ccc(OC(F)(F)F)cc2)CCn2cc([N+](=O)[O-])nc2O1 (stereo unspecified) | 1.7 h
5 | O=C(Nc1ccc(OC(F)(F)F)cc1)OCC1CCn2cc([N+](=O)[O-])nc2O1 (stereo unspecified) | 1.6 h

system: not listed separately; experiment: AUClast in BALB/c mouse at 1 mg/kg, iv measured up to 24 hrs by LC-MS/MS analysis; conditions: in vivo

Row | Compound | AUC(0-t) at 24 h
6 | CC1(COC(=O)Nc2ccc(OC(F)(F)F)cc2)CCn2cc([N+](=O)[O-])nc2O1 (stereo unspecified) | 2070 ng·h/mL
7 | O=C(Nc1ccc(OC(F)(F)F)cc1)OCC1CCn2cc([N+](=O)[O-])nc2O1 (stereo unspecified) | 1170 ng·h/mL

system: not listed separately; experiment: Half life in BALB/c mouse at 1 mg/kg, iv measured up to 24 hrs by LC-MS/MS analysis; conditions: in vivo

Row | Compound | half-life at 24 h
8 | CC1(COC(=O)Nc2ccc(OC(F)(F)F)cc2)CCn2cc([N+](=O)[O-])nc2O1 (stereo unspecified) | 1.3 h
9 | O=C(Nc1ccc(OC(F)(F)F)cc1)OCC1CCn2cc([N+](=O)[O-])nc2O1 (stereo unspecified) | 1.2 h

system: not listed separately; experiment: Clearance in BALB/c mouse at 1 mg/kg, iv measured up to 24 hrs by LC-MS/MS analysis; conditions: in vivo

Row | Compound | clearance at 24 h
10 | CC1(COC(=O)Nc2ccc(OC(F)(F)F)cc2)CCn2cc([N+](=O)[O-])nc2O1 (stereo unspecified) | 8.5 mL/min/kg
11 | O=C(Nc1ccc(OC(F)(F)F)cc1)OCC1CCn2cc([N+](=O)[O-])nc2O1 (stereo unspecified) | 14 mL/min/kg

system: not listed separately; experiment: Volume of distribution at steady state in BALB/c mouse at 1 mg/kg, iv measured up to 24 hrs by LC-MS/MS analysis; conditions: in vivo

Row | Compound | Vd at 24 h
12 | CC1(COC(=O)Nc2ccc(OC(F)(F)F)cc2)CCn2cc([N+](=O)[O-])nc2O1 (stereo unspecified) | 1.2 L/kg
13 | O=C(Nc1ccc(OC(F)(F)F)cc1)OCC1CCn2cc([N+](=O)[O-])nc2O1 (stereo unspecified) | 1.6 L/kg

system: not listed separately; experiment: Initial plasma concentration in BALB/c mouse at 1 mg/kg, iv measured up to 24 hrs by LC-MS/MS analysis; conditions: not given

Row | Compound | C0 at 24 h
14 | CC1(COC(=O)Nc2ccc(OC(F)(F)F)cc2)CCn2cc([N+](=O)[O-])nc2O1 (stereo unspecified) | 800 ng/mL
15 | O=C(Nc1ccc(OC(F)(F)F)cc1)OCC1CCn2cc([N+](=O)[O-])nc2O1 (stereo unspecified) | 740 ng/mL

system: MRC5; experiment: Cytotoxicity against human MRC5 cells assessed as reduction in cell viability measured after 72 hrs by resazurin assay; format: ADME, cell-based; conditions: MRC5, 72 h

Row | Compound | IC50
16 | CC1(CNC(=O)COc2ccc(OC(F)(F)F)cc2)CCn2cc([N+](=O)[O-])nc2O1 (stereo unspecified) | ≥ 40000 nM
17 | CC1(COCc2ccc(OC(F)(F)F)cc2)CCn2cc([N+](=O)[O-])nc2O1 (stereo unspecified) | ≥ 40000 nM
18 | CC1(CNS(=O)(=O)c2ccc(OC(F)(F)F)cc2)CCn2cc([N+](=O)[O-])nc2O1 (stereo unspecified) | ≥ 40000 nM
19 | O=C(NCc1ccc(OC(F)(F)F)cc1)OCC1CCn2cc([N+](=O)[O-])nc2O1 (stereo unspecified) | ≥ 40000 nM
20 | CC1(CNC(=O)c2ccc(OC(F)(F)F)cc2)CCn2cc([N+](=O)[O-])nc2O1 (stereo unspecified) | ≥ 40000 nM
21 | CC1(CNC(=O)Cc2ccc(OC(F)(F)F)cc2)CCn2cc([N+](=O)[O-])nc2O1 (stereo unspecified) | ≥ 40000 nM
22 | CC1(COC(=O)Nc2ccc(OC(F)(F)F)cc2)CCn2cc([N+](=O)[O-])nc2O1 (stereo unspecified) | ≥ 40000 nM
23 | O=C(Nc1ccc(OC(F)(F)F)cc1)OCC1CCn2cc([N+](=O)[O-])nc2O1 (stereo unspecified) | ≥ 40000 nM

system: Leishmania donovani; experiment: Antileishmanial activity against Leishmania donovani MHOM/ET/67/HU3 amastigotes infected in BALB/c mouse model of visceral leishmaniasis assessed as reduction in parasite burden in liver at 12.5 mg/kg, po administered once daily for 5 consecutive days starting after 7 days post-infection by microscopic analysis relative to control; format: functional; parameters: scale not given: the % may be the effect or the level left; conditions: time 5 day

Row | Compound | Activity
24 | CC1(COC(=O)Nc2ccc(OC(F)(F)F)cc2)CCn2cc([N+](=O)[O-])nc2O1 (stereo unspecified) | 7%

system: Leishmania donovani; experiment: Antileishmanial activity against Leishmania donovani MHOM/ET/67/HU3 amastigotes infected in BALB/c mouse model of visceral leishmaniasis assessed as reduction in parasite burden in liver at 25 mg/kg, po administered once daily for 5 consecutive days starting after 7 days post-infection by microscopic analysis relative to control; format: functional; parameters: scale not given: the % may be the effect or the level left; conditions: time 5 day

Row | Compound | Activity
25 | CC1(COC(=O)Nc2ccc(OC(F)(F)F)cc2)CCn2cc([N+](=O)[O-])nc2O1 (stereo unspecified) | 97%

system: Leishmania donovani; experiment: Antileishmanial activity against Leishmania donovani MHOM/ET/67/HU3 amastigotes infected in BALB/c mouse model of visceral leishmaniasis assessed as reduction in parasite burden in liver at 50 mg/kg, po administered once daily for 5 consecutive days starting after 7 days post-infection by microscopic analysis relative to control; format: functional; parameters: scale not given: the % may be the effect or the level left; conditions: time 5 day

Row | Compound | Activity
26 | CC1(CNC(=O)c2ccc(OC(F)(F)F)cc2)CCn2cc([N+](=O)[O-])nc2O1 (stereo unspecified) | 71%
27 | CC1(COC(=O)Nc2ccc(OC(F)(F)F)cc2)CCn2cc([N+](=O)[O-])nc2O1 (stereo unspecified) | >99%

system: not listed separately; experiment: Aqueous solubility of the compound at pH 7 sonicated for 15 mins by HPLC analysis; conditions: aqueous medium

Row | Compound | solubility at 0.25 h
28 | CC1(CNC(=O)c2ccc(OC(F)(F)F)cc2)CCn2cc([N+](=O)[O-])nc2O1 (stereo unspecified) | 78 µg/mL (≈ 195 µM)
29 | CC1(COC(=O)Nc2ccc(OC(F)(F)F)cc2)CCn2cc([N+](=O)[O-])nc2O1 (stereo unspecified) | 11 µg/mL (≈ 26.4 µM)
30 | O=C(Nc1ccc(OC(F)(F)F)cc1)OCC1CCn2cc([N+](=O)[O-])nc2O1 (stereo unspecified) | 4.5 µg/mL (≈ 11.2 µM)

system: Leishmania infantum; experiment: Antileishmanial activity against Leishmania infantum MHOM/MA(BE)/67 amastigotes infected in mouse peritoneal macrophages incubated for 5 days by Giemsa staining based assay; format: functional, organism-based; conditions: MHOM/MA(BE)/67, Peritoneal macrophage, 120 h

Row | Compound | IC50
31 | CC1(CNC(=O)COc2ccc(OC(F)(F)F)cc2)CCn2cc([N+](=O)[O-])nc2O1 (stereo unspecified) | 1700 nM
32 | CC1(COCc2ccc(OC(F)(F)F)cc2)CCn2cc([N+](=O)[O-])nc2O1 (stereo unspecified) | 300 nM
33 | CC1(CNS(=O)(=O)c2ccc(OC(F)(F)F)cc2)CCn2cc([N+](=O)[O-])nc2O1 (stereo unspecified) | 2200 nM
34 | O=C(NCc1ccc(OC(F)(F)F)cc1)OCC1CCn2cc([N+](=O)[O-])nc2O1 (stereo unspecified) | 180 nM
35 | CC1(CNC(=O)c2ccc(OC(F)(F)F)cc2)CCn2cc([N+](=O)[O-])nc2O1 (stereo unspecified) | 1400 nM
36 | CC1(CNC(=O)Cc2ccc(OC(F)(F)F)cc2)CCn2cc([N+](=O)[O-])nc2O1 (stereo unspecified) | 2000 nM
37 | CC1(COC(=O)Nc2ccc(OC(F)(F)F)cc2)CCn2cc([N+](=O)[O-])nc2O1 (stereo unspecified) | 360 nM
38 | O=C(Nc1ccc(OC(F)(F)F)cc1)OCC1CCn2cc([N+](=O)[O-])nc2O1 (stereo unspecified) | 360 nM

system: not listed separately; experiment: in vivo; conditions: BALB/c, mouse, po, 25 mg/kg

Row | Compound | bioavailability at 24 h
39 | CC1(COC(=O)Nc2ccc(OC(F)(F)F)cc2)CCn2cc([N+](=O)[O-])nc2O1 (stereo unspecified) | 100%
40 | O=C(Nc1ccc(OC(F)(F)F)cc1)OCC1CCn2cc([N+](=O)[O-])nc2O1 (stereo unspecified) | 100%

system: not listed separately; experiment: in vivo; conditions: BALB/c, mouse, po, 25 mg/kg; remark: another data set of the same source
Description: AUClast in BALB/c mouse at 25 mg/kg, po measured up to 24 hrs by LC-MS/MS analysis

Row | Compound | AUC(0-t) at 24 h
41 | CC1(COC(=O)Nc2ccc(OC(F)(F)F)cc2)CCn2cc([N+](=O)[O-])nc2O1 (stereo unspecified) | 57800 ng·h/mL
42 | O=C(Nc1ccc(OC(F)(F)F)cc1)OCC1CCn2cc([N+](=O)[O-])nc2O1 (stereo unspecified) | 35400 ng·h/mL

system: not listed separately; experiment: in vivo; conditions: BALB/c, mouse, po, 25 mg/kg; remark: another data set of the same source

Row | Compound | Tmax at 24 h
43 | CC1(COC(=O)Nc2ccc(OC(F)(F)F)cc2)CCn2cc([N+](=O)[O-])nc2O1 (stereo unspecified) | 0.75 h
44 | O=C(Nc1ccc(OC(F)(F)F)cc1)OCC1CCn2cc([N+](=O)[O-])nc2O1 (stereo unspecified) | 1 h

system: not listed separately; experiment: in vivo; conditions: BALB/c, mouse, po, 25 mg/kg; remark: another data set of the same source

Row | Compound | Cmax at 24 h
45 | CC1(COC(=O)Nc2ccc(OC(F)(F)F)cc2)CCn2cc([N+](=O)[O-])nc2O1 (stereo unspecified) | 13500 ng/mL
46 | O=C(Nc1ccc(OC(F)(F)F)cc1)OCC1CCn2cc([N+](=O)[O-])nc2O1 (stereo unspecified) | 9600 ng/mL
